Assay [1] addresses T1, recombinant human Lp-PLA2 (Homo sapiens, UniProt Q13093).
T1 sequence (Q13093 22-441): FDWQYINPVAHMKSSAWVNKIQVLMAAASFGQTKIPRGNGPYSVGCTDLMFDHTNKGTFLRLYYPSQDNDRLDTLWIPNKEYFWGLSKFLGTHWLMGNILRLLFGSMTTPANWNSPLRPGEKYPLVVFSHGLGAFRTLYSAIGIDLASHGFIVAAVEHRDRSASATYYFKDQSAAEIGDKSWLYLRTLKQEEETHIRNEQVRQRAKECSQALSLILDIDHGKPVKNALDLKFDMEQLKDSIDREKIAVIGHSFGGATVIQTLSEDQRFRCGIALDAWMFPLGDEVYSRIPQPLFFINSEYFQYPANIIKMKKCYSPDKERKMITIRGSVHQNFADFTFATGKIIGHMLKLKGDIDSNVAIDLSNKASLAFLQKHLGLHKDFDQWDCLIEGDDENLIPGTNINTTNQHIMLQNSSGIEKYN
Description: Recombinant human Lp-PLA2 assay (rhLp-PLA2, PED6 assay). The assay is classed as biochemical. To be noted: recombinant human Lp-PLA2, PED6 substrate; upper limit for pIC50 in this assay is 9.3. An outline of the steps: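 Compound preincubated 30 min with rhLp-PLA2 (4 nM or 110 pM) in 50 mM HEPES pH 7.4, 150 mM NaCl, 1 mM CHAPS, then PED6 substrate (4 μM or 5 μM) added. After 20 min at room temperature protected from light, fluorescence read at ex 480/em 540. pIC50 derived from serial-dilution curves.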

A further assay has as its target T2, Lp-PLA2 in human plasma (Homo sapiens, UniProt Q13093).
T2 construct: This assay may detect the activity of Lp-PLA2 in human plasma; from tissue; host or cells: pooled human plasma
T2 sequence (Q13093 22-441): T1 sequence (Q13093 22-441)
Description: Lp-PLA2 human plasma assay (Thio-PAF assay). The assay is classed as biochemical. To be noted: pooled human plasma, 2-thio-PAF substrate; read-out: pIC50 in the thio-PAF assay (converted). The method in brief:
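Pooled human plasma preincubated 30 min with serially diluted compounds, then 2-thio-PAF substrate with CPM and NEM added in 50 mM HEPES pH 7.4, 150 mM NaCl, 1 mM CHAPS. TFA-quenched after 2 min, 40 min at RT, fluorescence ex 380/em 485; pIC50 from curve fit.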

Where a name gives a salt, the structure may show the parent alone.

Take `CN1CCn2c1cc(OCc1ccc(Oc3cncc(C(F)(F)F)c3)c(C#N)c1)nc2=O` [Example 115, 5-(((1-methyl-5-oxo-1,2,3,5-tetrahydroimidazo[1,2-c]pyrimidin-7-yl)oxy)methyl)-2-((5-(trifluoromethyl)pyridin-3-yl)oxy)benzonitrile, trifluoroacetic acid salt]: the IC50 in assay [1] is 3.98 nM; at Lp-PLA2 in human plasma, not above 100 nM.
Regarding `CN1CCn2c1cc(OCc1ccc(Oc3ccc(F)c(F)c3)c(F)c1)nc2=O` [Example E4, 7-((4-(3,4-difluorophenoxy)-3-fluorobenzyl)oxy)-1-methyl-2,3-dihydroimidazo[1,2-c]pyrimidin-5(1H)-one], the results for the IC50 (in assay [1]; on Lp-PLA2 in human plasma) were not above 1 nM and not above 100 nM, respectively.
As for `CC(C)N1CCn2c1cc(OCc1ccc(Oc3ccc(F)c(F)c3)c(C#N)c1)nc2=O` [Example E53, 2-(3,4-difluorophenoxy)-5-(((1-isopropyl-5-oxo-1,2,3,5-tetrahydroimidazo[1,2-c]pyrimidin-7-yl)oxy)methyl)benzonitrile], the IC50 in assay [1] is not above 10 nM; on Lp-PLA2 in human plasma, not above 1000 nM.
For `N#Cc1ccc(Oc2ccc(COc3cc4n(c(=O)n3)CCN4)cc2F)cc1C(F)(F)F` [Example 118, 4-(2-fluoro-4-(((5-oxo-1,2,3,5-tetrahydroimidazo[1,2-c]pyrimidin-7-yl)oxy)methyl)p-hen-oxy)-2-(trifluoromethyl)benzonitrile], the IC50 in assay [1] is 0.794 nM; on Lp-PLA2 in human plasma, not above 100 nM.
Take `CN1CCn2c1cc(OCc1cc(F)c(Oc3ccc(C(F)(F)F)c(F)c3)c(F)c1)nc2=O` [Example 140, 7-((3,5-difluoro-4-(3-fluoro-4-(trifluoromethyl)phenoxy)benzyl)oxy)-1-methyl-2,3-dihydroimidazo[1,2-c]pyrimidin-5(I H)-one]: the results for the IC50 (in assay [1]; on Lp-PLA2 in human plasma) were not above 1 nM and not above 100 nM, respectively.
As to `CN1CCn2c1cc(OCc1ccc(Oc3ccc(C(F)(F)F)cn3)c(C#N)c1)nc2=O` [Example E35, 5-(((1-methyl-5-oxo-1,2,3,5-tetrahydroimidazo[1,2-c]pyrimidin-7-yl)oxy)methyl)-2-((5-(trifluoromethyl)pyridin-2-yl)oxy)benzonitrile, trifluoroacetic acid salt], the IC50 in assay [1] is not above 10 nM; at Lp-PLA2 in human plasma, not above 1000 nM.
Turning to `O=c1nc(OCc2ccc(Oc3ccc(F)c(C(F)(F)F)c3)c(F)c2)cc2n1CCN2` [Example E66, 7-((3-fluoro-4-(4-fluoro-3-(trifluoromethyl)phenoxy)benzyl)oxy)-2,3-dihydroimidaz-o[1,2-c]pyrimidin-5(1H)-one], the IC50 in assay [1] is not above 1 nM; on Lp-PLA2 in human plasma, not above 100 nM.
For `CN1CCn2c1cc(OCc1ccc(Oc3cccc(F)c3)c(C#N)c1)nc2=O` [Example E18, 2-(3-fluorophenoxy)-5-(((1-methyl-5-oxo-1,2,3,5-tetrahydroimidazo[1,2-c]pyrimidin-7-yl)oxy)methyl)benzonitrile], the figures for the IC50 (in assay [1]; on Lp-PLA2 in human plasma) were not above 10 nM and not above 1000 nM, respectively.
`CN1CCn2c1cc(OCc1ccc(Oc3cc(F)cc(C(F)(F)F)c3)c(C#N)c1)nc2=O` [Example 116]: the IC50 in assay [1] is not above 1 nM; on Lp-PLA2 in human plasma, not above 100 nM.
Regarding `CN1CCn2c1cc(OCc1cc(F)c(Oc3ccc(F)c(C(F)(F)F)c3)c(F)c1)nc2=O` [Example E81, 7-((3,5-difluoro-4-(4-fluoro-3-(trifluoromethyl)phenoxy)benzyl)oxy)-1-methyl-2,3-dihydroimidazo[1,2-c]pyrimidin-5(1H)-one], the IC50 in assay [1] is not above 1 nM; on Lp-PLA2 in human plasma it was not above 100 nM.
With `CN1CCn2c1cc(OCc1ccc(Oc3ccc(Cl)c(F)c3)c(C#N)c1)nc2=O` [Example E37, 2-(4-chloro-3-fluorophenoxy)-5-(((1-methyl-5-oxo-1,2,3,5-tetrahydroimidazo[1,2-c]pyrimidin-7-yl)oxy)methyl)benzonitrile, trifluoroacetic acid salt], the values for the IC50 (in assay [1]; on Lp-PLA2 in human plasma) were not above 10 nM and not above 1000 nM, respectively.
`CN1CCn2c1cc(OCc1ccc(Oc3ccc(Cl)c(C#N)c3)c(C#N)c1)nc2=O` [Example 114, 2-chloro-5-(2-cyano-4-(((1-methy-5-oxo-1,2,3,5-tetrahydroimidazo[1,2-c]pyrimidin-7-yl)oxy)methyl)phenoxy)benzonitrile]: the IC50 in assay [1] was not above 10 nM; on Lp-PLA2 in human plasma, not above 100 nM.
Turning to `N#Cc1cc(COc2cc3n(c(=O)n2)CCN3)ccc1Oc1ccc(Cl)c(C(F)(F)F)c1` [Example 96, 2-(4-chloro-3-(trifluoromethyl)phenoxy)-5-(((5-oxo-1,2,3,5-tetrahydroimidazo[1,2-c]pyrimidin-7-yl)oxy)methyl)benzonitrile], the IC50 was not above 10 nM in assay [1] and not above 100 nM on Lp-PLA2 in human plasma.
For `CN1CCn2c1cc(OCc1ccc(Oc3ccc(C#N)c(F)c3)c(C#N)c1)nc2=O` [Example 95, 4-(2-cyano-4-(((1-methyl-5-oxo-1,2,3,5-tetrahydroimidazo[1,2-c]pyrimidin-7-yl)oxy)methyl)phenoxy)-2-fluorobenzonitrile], in that order: 1.26 nM and not above 100 nM.
Consider `CN1CCn2c1cc(OCc1ccc(Oc3cccc(C#N)c3)c(C#N)c1)nc2=O` [Example E62, 2-(3-cyanophenoxy)-5-(((l-methyl-5-oxo-1,2,3,5-tetrahydroimidazo[1,2-c]pyrimidin-7-yl)oxy)methyl)benzonitrile, trifluoroacetic acid salt], for which the IC50 in assay [1] was not above 10 nM; on Lp-PLA2 in human plasma it was not above 1000 nM.
As for `CN1CCn2c1cc(OCc1ccc(Oc3ccc(F)c(C(F)(F)F)c3)cc1)nc2=O` [Example E29, 7-((4-(4-fluoro-3-(trifluoromethyl)phenoxy)benzyl)oxy)-1-methyl-2,3-dihydroimid-azo[1,2-c]pyrimidin-5(1H)-one], the IC50 is not above 10 nM in assay [1] and not above 1000 nM on Lp-PLA2 in human plasma.
Regarding `CN1CCn2c1cc(OCc1ccc(Oc3cc(F)cc(F)c3)c(C#N)c1)nc2=O` [Example 111, 2-(3,5-difluorophenoxy)-5-(((1-methyl-5-oxo-1,2,3,5-tetrahydroimidazo[1,2-c]pyri-midin-7-yl)oxy)methyl)benzonitrile], the IC50 was not above 10 nM in assay [1] and not above 1000 nM on Lp-PLA2 in human plasma.
Consider `CC(C)N1CCn2c1cc(OCc1ccc(Oc3ccc(Cl)c(C(F)(F)F)c3)cc1)nc2=O` [Example E59, 7-((4-(4-chloro-3-(trifluoromethyl)phenoxy)benzyl)oxy)-1-isopropyl-2,3-dihydroim-idazo[1,2-c]pyrimidin-5(1H)-one], for which the IC50 was not above 10 nM in assay [1] and not above 100 nM on Lp-PLA2 in human plasma.
For the molecule `CN1CCn2c1cc(OCc1ccc(Oc3ccnc(C(F)(F)F)c3)c(C#N)c1)nc2=O` [Example E80, 5-(((1-methyl-5-oxo-1,2,3,5-tetrahydroimidazo[1,2-c]pyrimidin-7-yl)oxy)methyl)-2-((2-(trifluoromethyl)pyridin-4-yl)oxy)benzonitrile], the IC50 in assay [1] is 1.26 nM; at Lp-PLA2 in human plasma, not above 100 nM.
For `CN1CCn2c1cc(OCc1cc(F)c(Oc3ccc(C#N)c(C(F)(F)F)c3)c(F)c1)nc2=O` [Example 144, 4-(2,6-difluoro-4-(((1-methyl-5-oxo-1,2,3,5-tetrahydroimidazo[1,2-c]pyrimidin-7-yl)oxy)methyl)phenoxy)-2-(trifluoromethyl)benzonitrile], in that order: less than 0.501 nM and not above 100 nM.
Regarding `N#Cc1cc(COc2cc3n(c(=O)n2)CCN3)ccc1Oc1cc(F)cc(C(F)(F)F)c1` [Example 120, 2-(3-fluoro-5-(trifluoromethyl)phenoxy)-5-(((5-oxo-1,2,3,5-tetrahydroimidazo[1,2-c]pyrimidin-7-yl)oxy)methyl)benzonitrile], the IC50 in assay [1] is not above 10 nM; at Lp-PLA2 in human plasma it was not above 100 nM.
In the case of `CN1CCn2c1cc(OCc1ccc(Oc3ccc(Cl)c(C(F)(F)F)c3)c(C#N)c1)nc2=O` [Example 101, 2-(4-chloro-3-(trifluoromethyl)phenoxy)-5-(((1-methyl-5-oxo-1,2,3,5-tetrahydro-imidazo[1,2-c]pyrimidin-7-yl)oxy)methyl)benzonitrile, trifluoroacetic acid salt], the IC50 is not above 1 nM in assay [1] and not above 100 nM at Lp-PLA2 in human plasma.
`CN1CCn2c1cc(OCc1ccc(Oc3ccc(Br)c(F)c3)c(C#N)c1)nc2=O` [Example E70, 2-(4-bromo-3-fluorophenoxy)-5-(((I-methyl-5-oxo-1,2,3,5-tetrahydroimidazo[1,2-c]pyrimidin-7-yl)oxy)methyl)benzonitrile]: the IC50 in assay [1] is not above 1 nM; at Lp-PLA2 in human plasma, not above 1000 nM.
`CN1CCn2c1cc(OCc1cc(F)c(Oc3ccc(C(F)(F)F)nc3)c(F)c1)nc2=O` [Example E2, 7-((3,5-difluoro-4-((6-(trifluoromethyl)pyridin-3-yl)oxy)benzyl)oxy)-1-methyl-2,3-dihydroimidazo[1,2-c]pyrimidin-5(1H)-one]: the IC50 in assay [1] is not above 10 nM; on Lp-PLA2 in human plasma, not above 1000 nM.

The values above are taken from patent US8975400B2, “2,3-dihydroimidazo[1, 2-c] pyrimidin-5(1 H)-one compounds use as LP-PLA2 inhibitors” (Glaxo Group Limited, priority 2011, dated 2015).
